The record followed here is ChEMBL document CHEMBL5365470, “Design, synthesis, and biological evaluation of THIQ as antidepressive agents” (Bioorg Med Chem Lett, 2023).

Series [1] can be described thus: Cytoprotective activity against corticosterone-induced […] PC12 cell damage assessed as cell viability at 50 uM (reference value: 51.13 to 51.51 %). The class given is functional. The settings on record: Rattus norvegicus, PC-12, read-out: Activity.
The nature of series [2]: Toxicity in […] PC12 cells at 50 uM. The class given is cell-based, Rattus norvegicus. The settings on record: pc12, 50 µM.
A short description of series [3]: Toxicity in SPF ICR mouse assessed as body weight at 7 mg/kg, po via gavage administered daily for 7 days measured on day 7 (reference value: 29.54 +/- 1.87 g). The class given is organism-based. The settings on record: in vivo, 168 h, time 7 day.
Series [4] is described as follows: Toxicity in SPF ICR mouse assessed as body weight at 7 mg/kg, po administered via gavage measured on day 1 (reference value: 22.24 +/- 0.9 g). The class given is organism-based. The settings on record: in vivo, 24 h, time 1 day.
Series [5] can be described thus: Cytoprotective activity against corticosterone-induced […] PC12 cell damage assessed as cell viability at 5 uM (reference value: 51.13 to 51.51 %). The class given is functional. The settings on record: PC-12, read-out: Activity.
The subject of another series is PC12. Put plainly: Cytoprotective activity against corticosterone-induced […] PC12 cell damage assessed as increase in cell survival. The class given is functional, cell-based. The conditions noted are these: dose 5-50 µM.
The nature of series [6]: Cytoprotective activity against corticosterone-induced […] PC12 cell damage assessed as cell viability at 10 uM (reference value: 51.13 to 51.51 %). The settings on record: PC-12, read-out: Activity. The class given is functional.
Series [7] can be described thus: Toxicity in SPF ICR mouse assessed as body weight growth at 7 mg/kg, po via gavage administered daily for 7 days (reference value: 32.62 +/- 6.17 %). The class given is organism-based. The conditions noted are these: in vivo, 168 h, time 7 day.
The subject of series [8] is Mus musculus. As to the kind of experiment: Antidepressant activity in SPF ICR mouse assessed as decrease in immobility duration at 7 mg/kg, po via gavage administered daily for 7 days measured post-last dose by forced swimming test relative to control. The class given is functional. On the set-up: scale not given: the % may be the effect or the level left. The conditions noted are these: time 7 day.

Series [9] concerns Mus musculus. Put plainly: Antidepressant activity in SPF ICR mouse assessed as decrease in immobility duration at 7 mg/kg, po via gavage administered daily for 7 days measured post-last dose by tail suspension test relative to control. The class given is functional. On the set-up: scale not given: the % may be the effect or the level left. The settings on record: time 7 day.

Series [10] in a line: Cytoprotective activity against corticosterone-induced […] PC12 cells assessed as cell survival at 10 uM preincubated for 1 hr followed by corticosterone stimulation and measured after 24 hrs (reference value: 51.13 to 51.51 %). The class given is functional. The conditions noted are these: PC-12, time 25 hrs, read-out: Activity.
Series [11] can be described thus: Cytoprotective activity against corticosterone-induced […] PC12 cells assessed as cell survival at 5 uM preincubated for 1 hr followed by corticosterone stimulation and measured after 24 hrs (reference value: 51.13 to 51.51 %). The settings on record: PC-12, time 25 hrs, read-out: Activity. The class given is functional.
Series [12] is described as follows: Cytoprotective activity against corticosterone-induced […] PC12 cell damage assessed as cell viability at 50 uM preincubated for 1 hr followed by corticosterone stimulation and measured after 24 hrs (reference value: 51.13 to 51.51 %). The class given is functional. The conditions noted are these: PC-12, time 25 hrs, read-out: Activity.

In the case of `COc1cc2c(cc1OC)CN(C(=O)c1ccc(F)cc1)CC2`, in [1], the viability at 50 µM is 49.6%. For the same molecule, the Activity entry in series [2] is on record as “Toxic”.

Take `COc1ccc(CCN2CCc3cc(OC)c(OC)cc3C2)cc1`: the Activity in [3] is 27.5 g; in [4], 21.3 g; with PC12, “Dose-Dependent Effect”; in series [7], 29.58%; with Mus musculus [8], 57.65%; in the series with Mus musculus [9] it was 65.85%. Also, in [2], the Activity entry is on record as “Non-Toxic”. For the same molecule, the viability at 5 µM in series [5] worked out at 49.1%. In series [1], the viability at 50 µM was determined as 69.3%. Besides, the viability at 10 µM in [6] is 65%.

Regarding `COc1ccc(CCCN2CCc3cc(OC)c(OC)cc3C2)cc1`, in series [1], the viability at 50 µM amounted to 51.8%. Further, the Activity result in series [2] is recorded as “Non-Toxic”.

On to `COc1cc2c(cc1OC)CN(CCc1ccccc1)CC2`, for which, in [1], the viability at 50 µM is 54.2%. Further, in [2], the Activity entry is “Non-Toxic”.

For `COc1cc2c(cc1OC)CN(CCc1ccc(O)cc1)CC2`, in [1], the viability at 50 µM turned out to be 50.4%. Moreover, the Activity entry in [2] is “Non-Toxic”.

For the molecule `COc1cc2c(cc1OC)CN(C(=O)c1cc3ccccc3[nH]1)CC2`, in [1], the viability at 50 µM was 62.8%.

In the case of `COc1cc2c(cc1OC)CN(C(=O)c1ccncc1)CC2`, the viability at 50 µM in [1] was 51.2%.

With `COc1cc2c(cc1OC)CNCC2`, the viability at 5 µM in series [5] is 65.7%. In addition, the viability at 50 µM in [1] is 45.8%. For the same molecule, in series [6], the viability at 10 µM turned out to be 57%.

As for `COc1cc2c(cc1OC)CN(C=O)CC2`, the viability at 50 µM in series [1] is 49.9%. Besides, the Activity entry in series [2] was “Toxic”.

In the case of `COc1cc2c(cc1OC)CN(Cc1ccc(F)cc1)CC2`, the viability at 50 µM in series [1] came to 49.5%. In [2], the Activity result was “Non-Toxic”.

`CCN1CCc2cc(OC)c(OC)cc2C1`: the viability at 50 µM in series [1] worked out at 58.9%. Moreover, in [2], the Activity entry was “Non-Toxic”.

On to `COc1cc2c(cc1OC)CN(C(=O)c1ccccc1O)CC2`, for which the viability at 50 µM in [1] amounted to 47.3%. The Activity entry in series [2] is “Toxic”.

Take `COc1cc2c(cc1OC)CN(C(=O)c1ccc(O)cc1)CC2`: in [1], the viability at 50 µM came to 39.8%. Further, in series [2], the Activity entry is on record as “Toxic”.

Consider `COc1cc2c(cc1OC)CN(C(=O)c1ccc(C(F)(F)F)cc1)CC2`, for which the viability at 50 µM in [1] was determined as 48.3%. Moreover, in series [2], the Activity entry was “Toxic”.

Consider `COc1cc2c(cc1OC)CN(C)CC2`, for which the viability at 50 µM in series [1] worked out at 54.5%. Also, the Activity entry in series [2] is “Non-Toxic”.

Take `COc1cc2c(cc1OC)CN(Cc1ccccc1)CC2`: in series [1], the viability at 50 µM came to 49.6%. The Activity entry in [2] is on record as “Non-Toxic”.

Regarding `COc1ccc(CC(=O)N2CCc3cc(OC)c(OC)cc3C2)cc1`, in [1], the viability at 50 µM was 51.9%.

`COc1cc2c(cc1OC)CN(C(=O)c1ccccc1)CC2`: the viability at 50 µM in series [1] came to 35.6%. Further, the Activity result in [2] was “Toxic”.

As for `COc1ccc2c(c1O)-c1c(O)c(OC)cc3c1[C@H](C2)[N+](C)(C)CC3` [MAGNOFLORINE], the Activity in [3] came to 29.44 g; in series [4], 24.21 g; in series [7], 21.15%; in the series on Mus musculus [8] it was 68.61%; in the series on Mus musculus [9] it was 65.65%. Further, the viability at 10 µM in [10] came to 73.7%. Besides, the viability at 5 µM in series [11] amounted to 48.6%. The viability at 50 µM in series [12] was 48.6%.

`COc1cc2c(cc1OC)CN(C(C)=O)CC2`: the viability at 50 µM in series [1] was 37.2%. In series [2], the Activity entry is “Toxic”.

With `COc1cc2c(cc1OC)CN(C(=O)C(C)(C)C)CC2`, in series [1], the viability at 50 µM stood at 33.7%. Moreover, in [2], the Activity entry is on record as “Toxic”.

Turning to `COc1cc2c(cc1OC)CN(CCc1ccc(F)cc1)CC2`, in series [1], the viability at 50 µM was found to be 38.2%.

With `COc1ccc(C(=O)N2CCc3cc(OC)c(OC)cc3C2)cc1`, in series [1], the viability at 50 µM is 44.8%. The Activity entry in [2] was “Toxic”.

In the case of `COc1cc2c(cc1OC)CN(C(=O)Cc1ccc(O)cc1)CC2`, the viability at 50 µM in series [1] is 42.4%. Also, the Activity result in series [2] was “Toxic”.

As to `COc1cc2c(cc1OC)CN(C(=O)c1ccc(OC(C)=O)cc1)CC2`, in [1], the viability at 50 µM was determined as 48.4%. In series [2], the Activity entry was “Toxic”.

Turning to `COc1ccc(CN2CCc3cc(OC)c(OC)cc3C2)cc1`, in series [1], the viability at 50 µM amounted to 51.8%. Also, the Activity entry in series [2] is listed as “Non-Toxic”.

Take `COc1cc2c(cc1OC)CN(C(=O)c1cccs1)CC2`: the viability at 50 µM in series [1] is 58.5%.
